Measured values as given in PubChem BioAssay (NCI).
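GI50 is the concentration that inhibits growth by half. TGI denotes the concentration required for complete inhibition of growth.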

Assays:
Test in all cases: NCI-60 cell line screen, 384-well format
NCI-H226 lung = test system: NCI-H226 lung
NCI-H23 lung = test system: NCI-H23 lung
NCI-H322M lung = test system: NCI-H322M lung
NCI-H460 NSCLC = test system: NCI-H460 NSCLC
NCI-H522 lung = test system: NCI-H522 lung
NCI/ADR-RES ovarian = test system: NCI/ADR-RES ovarian
OVCAR-3 ovarian = test system: OVCAR-3 ovarian
OVCAR-4 ovarian = test system: OVCAR-4 ovarian
OVCAR-5 ovarian = test system: OVCAR-5 ovarian
PC-3 prostate = test system: PC-3 prostate
RPMI-8226 leukemia = test system: RPMI-8226 leukemia
RXF 393 renal = test system: RXF 393 renal
SF-268 CNS = test system: SF-268 CNS
SF-295 CNS = test system: SF-295 CNS
SF-539 CNS = test system: SF-539 CNS
SK-MEL-2 melanoma = test system: SK-MEL-2 melanoma
SK-MEL-28 melanoma = test system: SK-MEL-28 melanoma
SK-MEL-5 melanoma = test system: SK-MEL-5 melanoma
SK-OV-3 ovarian = test system: SK-OV-3 ovarian
SN12C renal = test system: SN12C renal
SNB-19 CNS = test system: SNB-19 CNS
SNB-75 CNS = test system: SNB-75 CNS
SR leukemia = test system: SR leukemia
SW-620 colon = test system: SW-620 colon
T-47D breast = test system: T-47D breast
TK-10 renal = test system: TK-10 renal
U251 glioblastoma = test system: U251 glioblastoma
UACC-257 melanoma = test system: UACC-257 melanoma
UACC-62 melanoma = test system: UACC-62 melanoma
UO-31 renal = test system: UO-31 renal

Compound: COc1cc(-c2ncn(/C=C\C(=O)OC(C)C)n2)cc(C(F)(F)F)c1
- GI50 (NCI-H226 lung): 20.8 nM
- TGI (NCI-H226 lung): 483 nM
- GI50 (NCI-H23 lung): 56.4 nM
- TGI (NCI-H23 lung): 1140 nM
- GI50 (NCI-H322M lung): 295 nM
- TGI (NCI-H322M lung): 2530 nM
- GI50 (NCI-H460 NSCLC): 29.6 nM
- TGI (NCI-H460 NSCLC): 163 nM
- TGI (NCI-H522 lung): 92.6 nM
- GI50 (NCI/ADR-RES ovarian): 54.9 nM
- TGI (NCI/ADR-RES ovarian): 1270 nM
- GI50 (OVCAR-3 ovarian): 26.4 nM
- TGI (OVCAR-3 ovarian): 151 nM
- GI50 (OVCAR-4 ovarian): 244 nM
- TGI (OVCAR-4 ovarian): 2040 nM
- GI50 (OVCAR-5 ovarian): 117 nM
- TGI (OVCAR-5 ovarian): 10000 nM
- GI50 (PC-3 prostate): 37.4 nM
- TGI (PC-3 prostate): 232 nM
- GI50 (RPMI-8226 leukemia): 13.6 nM
- TGI (RPMI-8226 leukemia): 32.5 nM
- GI50 (RXF 393 renal): 16.6 nM
- TGI (RXF 393 renal): 68.7 nM
- GI50 (SF-268 CNS): 29.9 nM
- TGI (SF-268 CNS): 88.8 nM
- GI50 (SF-295 CNS): 214 nM
- TGI (SF-295 CNS): 2300 nM
- GI50 (SF-539 CNS): 20.5 nM
- TGI (SF-539 CNS): 71.2 nM
- GI50 (SK-MEL-2 melanoma): 44.3 nM
- TGI (SK-MEL-2 melanoma): 69.5 nM
- GI50 (SK-MEL-28 melanoma): 222 nM
- TGI (SK-MEL-28 melanoma): 1610 nM
- GI50 (SK-MEL-5 melanoma): 137 nM
- TGI (SK-MEL-5 melanoma): 601 nM
- GI50 (SK-OV-3 ovarian): 2340 nM
- TGI (SK-OV-3 ovarian): 14300 nM
- GI50 (SN12C renal): 283 nM
- TGI (SN12C renal): 1770 nM
- GI50 (SNB-19 CNS): 444 nM
- TGI (SNB-19 CNS): 3150 nM
- GI50 (SNB-75 CNS): 91.9 nM
- TGI (SNB-75 CNS): 311 nM
- GI50 (SR leukemia): 11 nM
- TGI (SR leukemia): 23.7 nM
- GI50 (SW-620 colon): 56.1 nM
- TGI (SW-620 colon): 1250 nM
- GI50 (T-47D breast): 229 nM
- TGI (T-47D breast): 3730 nM
- GI50 (TK-10 renal): 37.9 nM
- TGI (TK-10 renal): 1200 nM
- GI50 (U251 glioblastoma): 39.2 nM
- TGI (U251 glioblastoma): 275 nM
- GI50 (UACC-257 melanoma): 552 nM
- TGI (UACC-257 melanoma): 4600 nM
- GI50 (UACC-62 melanoma): 42.4 nM
- TGI (UACC-62 melanoma): 179 nM
- GI50 (UO-31 renal): 166 nM
- TGI (UO-31 renal): 1580 nM
